Measurements reported in ChEMBL document CHEMBL1136137, “Ring substituted analogues of 5-aminomethyl-10,11-dihydro-dibenzo[a,d]cycloheptene (AMDH): potential modes of binding to the 5-HT(2A) receptor” (Bioorg Med Chem Lett, 2003).

molecular target: 5-hydroxytryptamine receptor 2A (Rattus norvegicus, UniProt P14842); test: Binding affinity towards 5-hydroxytryptamine 2A receptor sites by using [3H]ketanserin as radioligand
Sequence (P14842 whole entry): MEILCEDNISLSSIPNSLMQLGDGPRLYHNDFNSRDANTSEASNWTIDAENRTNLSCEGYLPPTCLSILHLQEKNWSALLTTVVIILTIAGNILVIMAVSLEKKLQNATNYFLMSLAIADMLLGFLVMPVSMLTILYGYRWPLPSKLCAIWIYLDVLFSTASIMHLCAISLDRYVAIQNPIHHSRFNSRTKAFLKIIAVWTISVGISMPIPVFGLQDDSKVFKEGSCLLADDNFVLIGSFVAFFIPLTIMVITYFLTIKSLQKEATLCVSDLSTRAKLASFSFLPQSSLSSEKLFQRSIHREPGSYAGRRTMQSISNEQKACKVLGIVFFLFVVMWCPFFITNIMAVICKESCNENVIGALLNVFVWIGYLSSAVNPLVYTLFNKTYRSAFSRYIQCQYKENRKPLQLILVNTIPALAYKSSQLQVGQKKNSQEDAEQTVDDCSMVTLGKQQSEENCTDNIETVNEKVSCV

First: COc1cc(OC)c(OC)cc1CC(C)N (stereo unspecified)
Second: CCCCCCc1cc(OC)c(CC(C)N)cc1OC (stereo unspecified)
The Ki of the first is 480-fold higher: 1200 nM for the first, 2.5 nM for the second. The second binds more tightly here.

First: CCCCCCc1ccc2c(c1)Cc1ccccc1C2CN (stereo unspecified)
Second: CCCCCCc1ccc2c(c1)CCc1ccccc1C2CN (stereo unspecified)
The Ki of the first is 90-fold lower: 7 nM for the first, 630 nM for the second.

First: COc1ccc2c(c1)Cc1ccccc1C2CN (stereo unspecified)
Second: COc1ccc2c(c1)CCc1ccccc1C2CN (stereo unspecified)
The Ki of the first is 110-fold lower: 7.5 nM for the first, 800 nM for the second.

First: NCC1c2ccccc2Cc2cc(Br)ccc21 (stereo unspecified)
Second: NCC1c2ccccc2CCc2cc(Br)ccc21 (stereo unspecified)
The Ki of the first is 28-fold lower: 1.3 nM for the first, 37 nM for the second.

First: COc1cc(CC(C)N)c(OC)cc1CCCc1ccccc1 (stereo unspecified)
Second: NCC1c2ccccc2Cc2cc(CCCc3ccccc3)ccc21 (stereo unspecified)
The Ki of the first is 3.1-fold higher: 10 nM for the first, 3.2 nM for the second.

Compound `NCC1c2ccccc2CCc2cc(CCCc3ccccc3)ccc21` (stereo unspecified) has a Ki of 81 nM.
